Measurements reported in article PMC3703888, “Integration of Different “-omics” Technologies Identifies Inhibition of the IGF1R-Akt-mTOR Signaling Cascade Involved in the Cytotoxic Effect of Shikonin against Leukemia Cells” (Evidence-based Complementary and Alternative Medicine : eCAM, 2013).
“Also recorded” adds a separate entry of the source.

Legend:
[1] = test system: p-Akt; assay: FlowCellect PI3K-mTOR signaling cascade assay (flow cytometry), p-Akt; type: cell-based; settings: 24 h
Description: The FlowCellect PI3K-mTOR signaling cascade assay kit (Merck Millipore, Germany) was used to analyze the effect of shikonin on the PI3K-mTOR signaling pathway. The assay is based on two directly conjugated phospho-specific signaling antibodies against phosphorylated Akt and phosphorylated ribosomal S6 protein, which are both important signaling nodes of the mTOR cascade. The phosphorylation of Akt is indicative of the upstream PI3K signaling, marking the cells initiation into proliferation or cell survival. Phosphorylated-ribosomal S6 protein is indicative of downstream mTOR and p70S6K signaling leading to protein translation. The assay was performed according to the manufacture's protocol. Briefly, 1.5 × 10^6 U937 cells were treated with 0.3 μM shikonin or DMSO solvent control and incubated for 24 h. Subsequently, cells were fixed on ice for 20 min using the supplied fixation buffer. After fixation, cells were washed twice and treated with permeabilization buffer on ice for 20 min. After two further washing steps, cells were resuspended in a final volume of 90 μL assay buffer and incubated with 5 μL 20x anti-phospho-ribosomal protein S6 (Ser235) PerCP conjugated monoclonal antibody and 5 μL 20x anti-phospho-Akt1/PKBα (Ser473) Alexa Fluor 488 conjugated monoclonal antibody in the dark on ice for one hour. After antibody incubation, cells were centrifuged and resuspended in 500 μL assay buffer. Subsequently, cells were measured in a LSR-Fortessa FACS analyzer (Becton-Dickinson, Germany) and shikonin fluorescence was compensated for the respective channels. For each sample, 1 × 10^4 cells were counted. The PerCP signal was measured with 488 nm excitation and detected using a 670/30 nm bandpass filter. The Alexa Fluor 488 signal was analyzed with 488 nm excitation and detected using a 530/30 nm bandpass filter. All parameters were plotted on a logarithmic scale. Cytographs were analyzed using FlowJo software (Celeza, Switzerland). All experiments were performed at least in triplicate. Student's t-test was used for statistical analysis.

[2] = test system: U937 cells; assay: miRNA microarray; type: cell-based, human; settings: shikonin at IC50 concentration, 24 h
Procedure: miRNA from U937 cells after 24 h of treatment with shikonin at IC50 concentration was isolated using miRNeasy Kit from Qiagen (Hilden, Germany) according to the manufacture's instruction. The quality of miRNA was checked by gel analysis using the Small RNA Nano chip assay on an Agilent 2100 Bioanalyzer (Agilent Technologies GmbH, Germany). The miRNA microarray was performed at the Institute for Molecular Biology (IMB). Microarray experiments were performed in duplicates for treated and untreated samples. Human miRNA microarray chips (8 × 60 K, Agilent Technologies) were used. Probe labeling and hybridization were carried out following the miRNA microarray system with miRNA complete labeling and hyb kit protocol (Agilent Technologies). Briefly, extracted RNA was treated with phosphatase. Dephosphorylated RNA was fluorescently labeled by ligation of Cyanine 3-pCp molecules to the 3′ end of RNA molecules using Agilent's miRNA Complete Labeling and Hyb Kit. The labeled RNA was desalted and hybridized for 20 hours at 55°C and 20 rpm. Microarray slides were washed and scanned with Agilent Microarray Scanning system. Images were analyzed and data were extracted, background subtracted, and normalized using the standard procedures of Agilent Feature Extraction Software. The expression data obtained was filtered with Chipster data analysis platform. These steps include filtering of miRNAs by two times standard deviation of deregulated genes and a subsequent assessment of significance using empirical Bayes t-test (P < 0.05).

[3] = cytograph p-Akt / p-ribosomal protein S6, U937 cells, 0.3 μM

Question: What does the source list for `CC(C)=CC[C@@H](O)C1=CC(=O)c2c(O)ccc(O)c2C1=O` [shikonin]?
Answer: Phosphorylation of Akt ([1]; U937 cells, 0.3 μM shikonin): significantly inhibits; also recorded: significantly decreased; Cells in quadrant Q1 [1, 3]: 27.2%; Cells in quadrant Q2 [1, 3]: 61.4%; Cells in quadrant Q3 [1, 3]: 1.10%; Cells in quadrant Q4 [1, 3]: 10.3%; FC miRNA miR-19b-2-5p [2]: +5.2; FC miRNA miR-20b-3p [2]: +3.7; FC miRNA miR-30a-3p [2]: +2.9; FC miRNA miR-33b-5p [2]: +3.1; FC miRNA miR-92a-3p [2]: +2.7; FC miRNA miR-155-3p [2]: +3.4; FC miRNA miR-181a-2-3p [2]: +3.2; FC miRNA miR-193b-3p [2]: +2.7; FC miRNA miR-223-5p [2]: +2.7; FC miRNA miR-513a-5p [2]: −4.7; FC miRNA miR-630 [2]: −5.1; FC miRNA miR-638 [2]: −6.1; FC miRNA miR-1185-5p [2]: −5.2; FC miRNA miR-1207-5p [2]: −6.3; FC miRNA miR-1246 [2]: −6.0; FC miRNA miR-1290 [2]: −6.2; FC miRNA miR-1915-3p [2]: −13.8; FC miRNA miR-2861 [2]: −9.8; FC miRNA miR-3907 [2]: +2.8; FC miRNA miR-4299 [2]: −30.6
